# Tests used:
# [1] = system: cortical neurons; conditions: cited from earlier work; for Protection of neurons from the neurotoxic effect of 3-deoxyglucosone and methylglyoxal: cotreatment with aminoguanidine, pretreatment with N-acetylcysteine
# [2] = system: internal limiting membrane of the retina; conditions: direct application; white light for 3 minutes; cited from earlier work
# [3] = system: porcine corneas; assay: Corneal surface wave elastometry after standard crosslinking or flash-linking; conditions: group 1
# Protocol: To investigate comparative cornea stiffness values in porcine corneas after standard crosslinking and a new, rapid method of crosslinking (flash-linking) using surface wave elastometry (Sonic Eye, PriaVision Inc, Menlo Park, Calif.).
# Six porcine eyes were treated using a UVA double diode with 4.2 mW/cm2 UVA at 370 nm while applying 0.1% riboflavin-5-phosphate drops to the central cornea every 5 minutes as a photosensitizer for 30 min (group 1). The next 6 porcine corneas were treated with a single application of a customized photoactive crosslinking agent (PriaVision Inc) and 30 seconds of UVA light at the same power and wavelength (group 2). Following both experimental treatments, the Sonic Eye system was used to measure ultrasound surface wave propagation time between two fixed-distance transducers applied to the cornea along central horizontal and vertical positions. Intraocular pressure was continuously monitored using a digital pressure monitor display (Infinity SC9000XL, Drager medical, Lubeck, Germany) after vitreous chamber cannulation with a 23-gauge needle.
# [4] = system: retinal ganglion cells; conditions: by inhibiting nitric oxide synthase; cited from earlier work
# [5] = system: porcine sclera; conditions: scleral strips; 1 hour glutaraldehyde, 5 days glyceraldehydes, 30 minutes UVA for riboflavin/UVA; cited from earlier work
# [6] = system: human LC; conditions: strips incubated in 0.5 M agent over 5 days; cited from earlier work
# [7] = system: human sclera; conditions: scleral strips; 1 hour glutaraldehyde, 5 days glyceraldehydes, 30 minutes UVA for riboflavin/UVA; cited from earlier work
# [8] = system: human PS; conditions: strips incubated in 0.5 M agent over 5 days; cited from earlier work
# [9] = system: keratoconus; conditions: topical riboflavin with UVA light exposure; cited from earlier work
# [10] = system: peripapillary sclera; assay: Surface wave velocity (stiffness) of the peripapillary sclera of whole globes, Sonic Eye elastometer; set-up: species or system porcine; conditions: riboflavin 1% + UVA 30 min
# Protocol: (§1) Surface wave velocity (SWV) is a measure of tissue stiffness, and is performed by detecting the velocity of an ultrasonic wave between 2 points (Sonic Eye, Priavision, Menlo Park, Calif.) (Dupps W J, et al., J Refract Surg; 23: 66-75 (2007)). 19 porcine eyes were divided into 2 groups. In group 1 (6 eyes), the SWV across the exposed optic nerve/lamina cribrosa complex (ON/LCC) was initially measured at the eyes' physiologic IOP and at 100 mmHg. The porcine globes were cannulated with IV tubing to facilitate the change in IOP. In group 2 (13 eyes), the pre-treatment SWV was measured across the same region and atop the peri-papillary sclera, after which both regions were treated with riboflavin 1%, Q 5 min×6, and UVA irradiation (˜365 nm at 3 mW/cm^2) for 30 min per eye. The SWV was then re-measured in each eye at the pre-treatment IOP and at 100 mmHg.
# (§2) An annular sponge soaked in GTA was exposed to the peripapillary sclera for ˜30 minutes, and not the ON/LCC. Measurements were repeated as above, but also along each quadrant of peripapillary sclera to ensure uniformity and symmetry of crosslinking around the ON/LCC. The results are summarized as follows:
# (§3) Eighteen porcine globes were divided evenly into 3 groups. The optic nerves were transected to expose the ON/LC, and each globe was infused through an in-line pressure transducer for direct IOP control. Surface wave velocity, a non-destructive measure of tissue stiffness, was measured across the ON/LC and PS before and after collagen crosslinking at IOP of 10 and 30 mmHg (groups 1 and 2) and at each globe's preinflation IOP and 80 mmHg (group 3). In group 3, papillary strain was measured by analyzing the displacement of fiducial marks immediately adjacent to the ON/LC using digital photography.
# (§4) Surface wave velocity (SWV) is a measure of tissue stiffness that has been used in dermatologic applications to measure age-related changes (Potts R O, et al., J Invest Dermatol.; 82(1):97-100 (1984); Potts R O, et al., J Biomech.; 16(6):365-372 (1983); Davis B R, et al., Exp Gerontol; 24(3):201-210 (1989)), softening effects of tissue hydration and skin creams (Vexler A, et al., J Invest Dermatol; 113(5):732-739 (1999)), and sclerosing effects of radiation on breast skin (Gorodetsky R, et al., Int J Radiat Oncol Biol Phys.; 45(4):893-900 (1999)). When acoustic waves in the 0.5 to 30 kHz frequency range are used, propagation speed in skin is related to the density and stiffness of the tissue (Pereira J M, et al., J Biomech.; 23(8):745-751 (1990)). A prototype handheld ocular surface elastometer (Sonic Eye, Priavision, Menlo Park, Calif.) with an operating frequency within this range (4 kHz) and a fixed 4.5 mm wave propagation distance has been described in detail elsewhere (Dupps W J Jr, et al., J Refract Surg.; 23(1):66-75 (2007)). The Sonic Eye was used in this study as a non-destructive means of measuring local in situ tissue stiffness across and around the optic nerve head.
# Eighteen porcine eyes were obtained from a local abattoir (Heffelfingers Meats, Inc., Jeromesville, Ohio) and were used within 24 hours postmortem. The optic nerves were dissected under microscopic visualization to expose the ON/LC (FIG. 1). […] Replicate SWV measurements were obtained at a rate of 1 per second with a triggering foot pedal to produce at least 5 measurements that were subsequently averaged for each region of interest. A PC software interface converted the time-of-flight data to velocity in meters per second (m/s), and the velocity data were exported to Excel (v. 11, SP2; Microsoft Corp, Redmond, Wash.) and Minitab (v. 14.20; Minitab Inc, State College, Pa.) for statistical analysis.
# (§5) Three experimental groups of 6 eyes each were defined. In group 1, SWV across the optic nerve/lamina cribrosa complex and peripapillary scleral regions of interest were measured at 10 and 30 mmHg to represent a physiological range of pressures. […]
# [11] = system: rabbit eyes; conditions: 370 nm light at 4.2 mW/cm2; cited from earlier work
# [12] = system: optic nerve/lamina cribrosa complex; assay: Surface wave velocity (stiffness) across the optic nerve/lamina cribrosa complex of whole globes, Sonic Eye elastometer; set-up: species or system porcine; conditions: Example 1 group 2
# Protocol: as §1, §2, §3, §4
# Eighteen porcine eyes were obtained from a local abattoir (Heffelfingers Meats, Inc., Jeromesville, Ohio) and were used within 24 hours postmortem. The optic nerves were dissected under microscopic visualization to expose the ON/LC (FIG. 1). […]
# as §5
compound,measurement,setting,value
O=CC(=O)C[C@H](O)[C@H](O)CO [3-deoxyglucosone],Neurotoxic effect to cortical neurons,[1],neurotoxic effect
"CC1(C)C(/C=C/C=C/C=C/C=C2\N(CCCCS(=O)(=O)O)c3ccc4ccccc4c3C2(C)C)=[N+](CCCCS(=O)(=O)[O-])c2ccc3ccccc3c21 [ICG, indocyanine green]",Stiffness of the internal limiting membrane of the retina,[2],increase the stiffness
CC(=O)N[C@@H](CS)C(=O)O [N-acetylcysteine],Protection of neurons from the neurotoxic effect of 3-deoxyglucosone and methylglyoxal,[1],protected the neurons
"Cc1cc2nc3c(=O)[nH]c(=O)nc-3n(C[C@H](O)[C@H](O)[C@H](O)COP(=O)(O)O)c2cc1C [UVA+riboflavin, riboflavin-5-phosphate]",Mean surface wave velocity of cornea after crosslinking,"[3]; 0.1% riboflavin-5-phosphate drops every 5 min, UVA 4.2 mW/cm2 370 nm 30 min",111.35±2.16 m/s
same,Increase of mean surface wave velocity of cornea after crosslinking,"[3]; from 93.6 to 111.3 m/s, p=0.032",17.7 units
N=C(N)NN [aminoguanidine],Protection of neurons from the neurotoxic effect of 3-deoxyglucosone and methylglyoxal,[1],protected the neurons
same,Neuroprotective effect to retinal ganglion cells,[4],neuroprotective effect
"O=CC(O)CO (stereo not shown) [glyceraldehydes, glyceraldehyde]",Rise in porcine scleral stress (rigidity),[5],5 ×
same,Increase of stress with 20% strain of human LC,[6],> 1.5 fold
same,Rise in human scleral stress (rigidity),[7],34%
same,Increase of stress with 20% strain of human PS,[8],> 2 fold
CC(=O)C=O [methylglyoxal],Increase of stress with 20% strain of human LC,[6],> 2 fold
same,Increase of stress with 20% strain of human PS,[8],> 3 fold
"Cc1cc2nc3c(=O)[nH]c(=O)nc-3n(C[C@H](O)[C@H](O)[C@H](O)CO)c2cc1C [riboflavin/UVA, riboflavin]",Clinical effect in keratoconus,[9],used effectively as a stabilizing treatment for keratoconus
same,SWV of the peripapillary sclera after crosslinking at 100 mmHg,"[10]; Example 1 group 2, IOP 100 mmHg",63.5±1.8 m/s
same,SWV (stiffness) of the peripapillary sclera after crosslinking,"[10]; Example 1 group 2, pre-treatment IOP, mean±SD",55.7±1.5 m/s
same,"Stiffness of Peripapillary Sclera, Post-crosslinking Mean ± SD","[10]; Example 3 Group 1, Low IOP 10 mmHg",85.5 ± 13.5 m/s
same,Retinal cell death after riboflavin and irradiation,[11],"retinal pigment epithelium (RPE), photoreceptor and outer nuclear layer death"
same,Rise in porcine scleral stress (rigidity),[5],1.5 ×
same,Rise in human scleral stress (rigidity),[7],29%
same,Change of SWV of the ON/LCC upon raising the IOP to 100 mmHg after crosslinking,"[12]; riboflavin 1% + UVA 30 min, p=0.1",no change
same,SWV (stiffness) of the ON/LCC after crosslinking,"[12]; riboflavin 1% Q 5 min x6 + UVA ~365 nm 3 mW/cm^2 30 min to ON/LCC and PS, pre-treatment IOP, mean±SD",32.8±1.1 m/s

# Source: patent US8580789B2, “Treating glaucoma” (The Cleveland Clinic Foundation, priority 2007, dated 2013)
